In PMC5931475, “Deciphering the molecular determinants of cholinergic anthelmintic sensitivity in nematodes: When novel functional validation approaches highlight major differences between the model Caenorhabditis elegans and parasitic species” (PLoS Pathogens, 2018):

How the values were obtained:
[1] = molecular target: T1, composite Cel-L-AChR with Hco-UNC-38 (29/63/L1/L8 + Hco-UNC-38); experiment: two-electrode voltage clamp, Xenopus oocytes; assay type: cell-based, Caenorhabditis elegans; Haemonchus contortus; settings: read-out: Lev EC50; agonist; responses normalized to 100 μM ACh
T1 construct: mixed-species complex of whole subunits; cRNA in Xenopus laevis oocytes with ancillary RIC-3, UNC-50, UNC-74; Cel-UNC-38 replaced by H. contortus UNC-38

[2] = molecular target: T2, composite Cel-L-AChR with Ode-ACR-8 (29/38/63/L1 + Ode-ACR-8); experiment: two-electrode voltage clamp, Xenopus oocytes; assay type: cell-based, Caenorhabditis elegans; Oesophagostomum dentatum; settings: read-out: Lev EC50; full agonist; responses normalized to 100 μM ACh
T2 construct: mixed-species complex of whole subunits; cRNA in Xenopus laevis oocytes with C. elegans RIC-3, UNC-50, UNC-74; LEV-8 replaced by O. dentatum ACR-8

[3] = molecular target: T3, composite Cel-L-AChR with Asu-ACR-8 (29/38/63/L1 + Asu-ACR-8); experiment: two-electrode voltage clamp, Xenopus oocytes; assay type: cell-based, Caenorhabditis elegans; Ascaris suum; settings: read-out: Lev EC50; agonist; responses normalized to 100 μM ACh
T3 construct: mixed-species complex of whole subunits; cRNA in Xenopus laevis oocytes with C. elegans RIC-3, UNC-50, UNC-74; LEV-8 replaced by A. suum ACR-8

[4] = molecular target: T4, Cel-L-AChR (29/38/63/L1 + Cel-LEV-8); experiment: two-electrode voltage clamp, Xenopus oocytes; assay type: cell-based, Caenorhabditis elegans; settings: partial agonist; responses normalized to 100 μM ACh
T4 construct: gene unc-38; full-length subunits from cRNA in Xenopus laevis oocytes with ancillary C. elegans RIC-3, UNC-50, UNC-74; heteropentamer

[5] = molecular target: T5, composite Cel-L-AChR with Min-ACR-8 (29/38/63/L1 + Min-ACR-8); experiment: two-electrode voltage clamp, Xenopus oocytes; assay type: cell-based, Caenorhabditis elegans; Meloidogyne incognita; settings: agonist; responses normalized to 100 μM ACh; read-out: Lev EC50
T5 construct: mixed-species complex of whole subunits; cRNA in Xenopus laevis oocytes with C. elegans RIC-3, UNC-50, UNC-74; LEV-8 replaced by M. incognita ACR-8

[6] = molecular target: T6, composite Cel-L-AChR with Hco-ACR-8 (29/38/63/L1 + Hco-ACR-8); experiment: two-electrode voltage clamp, Xenopus oocytes; assay type: cell-based, Caenorhabditis elegans; Haemonchus contortus; settings: read-out: Lev EC50; full agonist; responses normalized to 100 μM ACh
T6 construct: mixed-species complex of whole subunits; cRNA in Xenopus laevis oocytes with C. elegans RIC-3, UNC-50, UNC-74; LEV-8 replaced by H. contortus ACR-8

[7] = molecular target: T7, composite Cel-L-AChR with Hco-UNC-63 (29/38/L1/L8 + Hco-UNC-63); experiment: two-electrode voltage clamp, Xenopus oocytes; assay type: cell-based, Caenorhabditis elegans; Haemonchus contortus; settings: read-out: Lev EC50; agonist; responses normalized to 100 μM ACh
T7 construct: mixed-species complex of whole subunits; cRNA in Xenopus laevis oocytes with ancillary RIC-3, UNC-50, UNC-74; Cel-UNC-63 replaced by H. contortus UNC-63

[8] = tested on: T4, Cel-L-AChR (29/38/63/L1 + Cel-LEV-8); design: species or system Xenopus laevis oocytes; Agonist-evoked currents in cRNA-injected oocytes, concentration-response normalized to 100 uM ACh; settings: Imax as % of 100 uM ACh response; agonist
Description: (§1) The C. elegans L-AChR can be robustly expressed in Xenopus oocytes by co-expressing cRNAs from the five L-AChR subunits (UNC-38, UNC-63, UNC-29, LEV-1 and LEV-8) in combination with cRNA encoding three ancillary proteins (UNC-74, UNC-50 and RIC-3). Noticeably, the absence of any one of these AChR subunits or ancillary proteins from the injected cRNA mix leads to the loss of expression of functional receptor highlighting their major individual requirement. Taking advantage of this, we complemented the Cel-L-AChR by replacing the Cel-LEV-8 by ACR-8 subunits from distinct parasitic nematode species. As a preliminary set of experiments, cRNAs encoding ACR-8 from parasitic nematodes were micro-injected with the three ancillary proteins in order to test their ability to form a homomeric channel. […] Therefore, cRNAs encoding Cel-UNC-38, Cel-UNC-63, Cel-UNC-29, Cel-LEV-1, Cel-UNC-74, Cel-UNC-50 and Cel-RIC-3 in combination with either Hco-ACR-8 / Ode-ACR-8 / Asu-ACR-8 / Dim-ACR-8 / Min-ACR-8 were co-injected into Xenopus oocytes. Three days after injection, each of these combinations produced robust responses to 100μM ACh in oocytes (S3 Fig). Similarly, application of 100μM levamisole (Lev) elicited a response for all complemented Cel-L-AChRs. Dose response curves were generated for both ACh and Lev in complemented L-AChRs containing ACR-8 subunits from parasitic species (Fig 2 and Table 1). In comparison to the C. elegans L-AChR, we observed a drastic reduction of the ACh EC50 values in the composite L-AChRs complemented with Hco-ACR-8, Ode-ACR-8, Asu-ACR-8 and Dim-ACR-8. […] A. Representation of the putative arrangement of the C. elegans L-AChR subunits expressed in Xenopus oocytes and dose-response relationships for ACh (red triangle, n = 8) and Lev (white circle, n = 8). B-F. Representation of the putative subunit arrangement of the composite C. elegans L-AChRs including Cel-UNC-29, Cel-UNC-38, Cel-UNC-63, Cel-LEV-1 and the ACR-8 subunit from a parasitic nematode species: H. contortus ACR-8 (B), O. dentatum ACR-8 (C), A. suum ACR-8 (D), D. immitis ACR-8 (E) and M. incognita ACR-8 (F). Dose-response relationships for ACh and Lev are indicated by red triangles (n = 5–11) and white circles (n = 4–9), respectively. G-H. Representation of the putative subunit arrangement of the composite C. elegans L-AChRs with Hco-UNC-38 replacing Cel-UNC-38 (G) or Hco-UNC-63 replacing Cel-UNC-63 (H). Dose-response relationships for ACh and Lev are indicated by red triangles (n = 7–10) and white circles (n = 7–9), respectively. All responses are normalized to 100μM ACh. Results are shown as the mean ± se. […]

[9] = tested on: T3, composite Cel-L-AChR with Asu-ACR-8 (29/38/63/L1 + Asu-ACR-8); design: species or system Xenopus laevis oocytes; Agonist-evoked currents in cRNA-injected oocytes, concentration-response normalized to 100 uM ACh; settings: Imax as % of 100 uM ACh response; agonist
Description: as §1

[10] = tested on: T7, composite Cel-L-AChR with Hco-UNC-63 (29/38/L1/L8 + Hco-UNC-63); design: species or system Xenopus laevis oocytes; Agonist-evoked currents in cRNA-injected oocytes, concentration-response normalized to 100 uM ACh; settings: Imax as % of 100 uM ACh response; agonist
Description: as §1

[11] = tested on: T5, composite Cel-L-AChR with Min-ACR-8 (29/38/63/L1 + Min-ACR-8); design: species or system Xenopus laevis oocytes; Agonist-evoked currents in cRNA-injected oocytes, concentration-response normalized to 100 uM ACh; settings: Imax as % of 100 uM ACh response; agonist
Description: as §1

[12] = tested on: composite Cel-L-AChR with Hco-UNC-38 (29/63/L1/L8 + Hco-UNC-38); design: species or system Xenopus laevis oocytes; settings: Imax as % of 100 uM ACh response; agonist
[13] = tested on: composite Cel-L-AChR with Hco-ACR-8 (29/38/63/L1 + Hco-ACR-8); design: species or system Xenopus laevis oocytes; settings: Imax as % of 100 uM ACh response; agonist
[14] = tested on: composite Cel-L-AChR with Ode-ACR-8 (29/38/63/L1 + Ode-ACR-8); design: species or system Xenopus laevis oocytes; settings: Imax as % of 100 uM ACh response; agonist

T5 sequence (A0A2I6TEK4 19-527): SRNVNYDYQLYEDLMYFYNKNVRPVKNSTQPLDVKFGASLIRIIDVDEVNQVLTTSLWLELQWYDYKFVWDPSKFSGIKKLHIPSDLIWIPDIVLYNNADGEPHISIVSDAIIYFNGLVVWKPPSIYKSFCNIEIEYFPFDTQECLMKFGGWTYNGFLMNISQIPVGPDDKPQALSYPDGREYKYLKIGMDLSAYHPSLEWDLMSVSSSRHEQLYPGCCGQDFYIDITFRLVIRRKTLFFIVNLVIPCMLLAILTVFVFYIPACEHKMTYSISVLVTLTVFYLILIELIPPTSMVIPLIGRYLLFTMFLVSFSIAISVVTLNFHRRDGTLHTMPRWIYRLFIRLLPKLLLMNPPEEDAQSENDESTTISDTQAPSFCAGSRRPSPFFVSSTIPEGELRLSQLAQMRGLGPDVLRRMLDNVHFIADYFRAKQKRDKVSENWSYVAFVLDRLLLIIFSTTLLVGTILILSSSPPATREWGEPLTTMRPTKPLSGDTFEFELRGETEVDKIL
T5 sequence (Q23022 17-511, further chain): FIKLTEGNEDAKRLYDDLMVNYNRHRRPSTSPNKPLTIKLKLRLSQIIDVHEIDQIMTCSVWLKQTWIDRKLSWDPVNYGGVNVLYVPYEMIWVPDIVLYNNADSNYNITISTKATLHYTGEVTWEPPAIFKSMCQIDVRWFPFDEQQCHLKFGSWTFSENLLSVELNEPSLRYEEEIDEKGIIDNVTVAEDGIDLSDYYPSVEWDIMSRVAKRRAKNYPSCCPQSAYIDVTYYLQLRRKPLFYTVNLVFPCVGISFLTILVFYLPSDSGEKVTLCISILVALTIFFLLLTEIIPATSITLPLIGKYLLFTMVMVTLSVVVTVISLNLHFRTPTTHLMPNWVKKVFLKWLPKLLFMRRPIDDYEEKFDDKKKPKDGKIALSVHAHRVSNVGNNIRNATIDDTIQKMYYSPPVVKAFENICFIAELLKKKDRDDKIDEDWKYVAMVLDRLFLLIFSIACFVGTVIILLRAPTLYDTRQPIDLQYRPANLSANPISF
T5 sequence (Q9N587 24-502, further chain): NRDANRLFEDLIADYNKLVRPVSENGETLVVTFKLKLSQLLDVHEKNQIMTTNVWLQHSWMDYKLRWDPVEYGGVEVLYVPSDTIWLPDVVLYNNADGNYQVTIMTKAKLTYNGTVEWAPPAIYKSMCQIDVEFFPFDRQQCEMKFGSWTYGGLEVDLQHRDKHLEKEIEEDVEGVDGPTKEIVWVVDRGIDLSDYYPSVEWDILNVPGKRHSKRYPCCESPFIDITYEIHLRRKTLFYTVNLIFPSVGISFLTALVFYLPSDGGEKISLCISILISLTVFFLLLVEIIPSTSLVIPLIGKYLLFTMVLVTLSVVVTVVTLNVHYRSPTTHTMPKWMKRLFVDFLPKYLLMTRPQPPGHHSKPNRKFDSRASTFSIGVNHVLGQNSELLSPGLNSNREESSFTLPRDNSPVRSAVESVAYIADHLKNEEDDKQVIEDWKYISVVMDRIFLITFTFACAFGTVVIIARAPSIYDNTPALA
T5 sequence (P48181 27-493, further chain): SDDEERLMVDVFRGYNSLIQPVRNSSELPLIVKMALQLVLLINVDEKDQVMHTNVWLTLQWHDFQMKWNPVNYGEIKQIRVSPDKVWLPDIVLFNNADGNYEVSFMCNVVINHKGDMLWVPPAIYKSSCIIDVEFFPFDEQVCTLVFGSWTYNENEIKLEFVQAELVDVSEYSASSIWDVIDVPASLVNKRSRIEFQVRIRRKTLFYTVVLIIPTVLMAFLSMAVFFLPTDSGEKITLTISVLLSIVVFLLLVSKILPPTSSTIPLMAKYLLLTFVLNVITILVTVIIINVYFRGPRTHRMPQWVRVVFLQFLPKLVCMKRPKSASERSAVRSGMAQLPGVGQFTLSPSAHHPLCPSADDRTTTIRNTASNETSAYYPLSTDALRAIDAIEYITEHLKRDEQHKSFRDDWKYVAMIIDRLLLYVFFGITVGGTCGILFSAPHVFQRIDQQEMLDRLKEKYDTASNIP
T5 sequence (Q27218 32-507, further chain): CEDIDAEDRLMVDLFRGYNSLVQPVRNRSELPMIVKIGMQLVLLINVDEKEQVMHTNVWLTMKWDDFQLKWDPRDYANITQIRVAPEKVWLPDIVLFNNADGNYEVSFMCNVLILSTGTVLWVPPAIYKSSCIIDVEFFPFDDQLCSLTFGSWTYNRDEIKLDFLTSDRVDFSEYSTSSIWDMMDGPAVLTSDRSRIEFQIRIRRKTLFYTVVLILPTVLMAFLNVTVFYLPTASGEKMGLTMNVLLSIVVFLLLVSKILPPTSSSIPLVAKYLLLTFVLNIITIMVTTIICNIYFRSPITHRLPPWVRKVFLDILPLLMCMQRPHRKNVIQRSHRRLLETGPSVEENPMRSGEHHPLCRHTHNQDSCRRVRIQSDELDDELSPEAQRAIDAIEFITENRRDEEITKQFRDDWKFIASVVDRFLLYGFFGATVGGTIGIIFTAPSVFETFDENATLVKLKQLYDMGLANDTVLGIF
T3 sequence (A0A2I6TEN1 25-521): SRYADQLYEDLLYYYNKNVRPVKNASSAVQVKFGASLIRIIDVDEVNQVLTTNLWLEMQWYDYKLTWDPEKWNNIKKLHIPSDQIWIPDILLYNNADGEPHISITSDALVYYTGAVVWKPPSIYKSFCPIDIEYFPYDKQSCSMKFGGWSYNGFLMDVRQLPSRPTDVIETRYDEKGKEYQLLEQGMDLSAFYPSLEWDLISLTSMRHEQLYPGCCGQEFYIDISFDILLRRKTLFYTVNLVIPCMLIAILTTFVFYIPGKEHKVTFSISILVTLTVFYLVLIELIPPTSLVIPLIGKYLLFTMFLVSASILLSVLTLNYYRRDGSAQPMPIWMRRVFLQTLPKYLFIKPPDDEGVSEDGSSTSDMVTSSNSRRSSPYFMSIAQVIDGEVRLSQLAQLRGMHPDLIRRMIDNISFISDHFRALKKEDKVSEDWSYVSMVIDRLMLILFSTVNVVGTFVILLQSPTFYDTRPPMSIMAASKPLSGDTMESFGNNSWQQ
T3 sequence (Q23022 17-511, further chain): as the sequence (Q23022 17-511, further chain) above
T3 sequence (Q9N587 24-502, further chain): as the sequence (Q9N587 24-502, further chain) above
T3 sequence (P48181 27-493, further chain): as the sequence (P48181 27-493, further chain) above
T3 sequence (Q27218 32-507, further chain): as the sequence (Q27218 32-507, further chain) above
T7 sequence (D6MYF4 22-504): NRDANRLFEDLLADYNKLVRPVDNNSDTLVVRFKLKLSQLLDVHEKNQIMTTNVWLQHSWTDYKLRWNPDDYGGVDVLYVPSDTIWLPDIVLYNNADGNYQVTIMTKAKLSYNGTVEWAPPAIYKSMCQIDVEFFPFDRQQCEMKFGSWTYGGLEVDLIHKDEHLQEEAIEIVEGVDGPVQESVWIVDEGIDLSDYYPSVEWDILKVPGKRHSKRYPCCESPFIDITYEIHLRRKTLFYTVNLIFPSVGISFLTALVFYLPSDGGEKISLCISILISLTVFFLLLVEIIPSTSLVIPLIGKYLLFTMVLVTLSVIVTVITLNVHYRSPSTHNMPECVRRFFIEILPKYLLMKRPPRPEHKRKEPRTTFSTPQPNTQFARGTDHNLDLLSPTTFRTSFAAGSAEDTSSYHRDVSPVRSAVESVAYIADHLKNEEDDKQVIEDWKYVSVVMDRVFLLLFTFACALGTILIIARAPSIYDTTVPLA
T7 sequence (Q23022 17-511, further chain): as the sequence (Q23022 17-511, further chain) above
T7 sequence (P48181 27-493, further chain): as the sequence (P48181 27-493, further chain) above
T7 sequence (Q27218 32-507, further chain): as the sequence (Q27218 32-507, further chain) above
T7 sequence (Q93329 26-531, further chain): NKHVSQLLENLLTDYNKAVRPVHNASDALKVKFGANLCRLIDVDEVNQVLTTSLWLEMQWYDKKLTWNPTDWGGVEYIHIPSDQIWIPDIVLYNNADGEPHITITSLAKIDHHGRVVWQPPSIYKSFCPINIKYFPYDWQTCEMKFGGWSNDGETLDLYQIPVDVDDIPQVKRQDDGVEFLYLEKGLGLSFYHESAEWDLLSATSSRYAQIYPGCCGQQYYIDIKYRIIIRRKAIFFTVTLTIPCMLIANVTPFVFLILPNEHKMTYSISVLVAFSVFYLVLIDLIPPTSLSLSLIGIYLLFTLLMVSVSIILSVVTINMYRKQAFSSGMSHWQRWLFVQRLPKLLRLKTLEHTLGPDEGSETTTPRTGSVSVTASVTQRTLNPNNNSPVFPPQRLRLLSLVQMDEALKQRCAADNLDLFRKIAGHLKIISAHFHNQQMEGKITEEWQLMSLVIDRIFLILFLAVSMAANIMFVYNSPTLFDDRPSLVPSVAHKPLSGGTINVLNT
T4 sequence (Q23022 17-511): as the sequence (Q23022 17-511, further chain) above
T4 sequence (Q9N587 24-502, further chain): as the sequence (Q9N587 24-502, further chain) above
T4 sequence (P48181 27-493, further chain): as the sequence (P48181 27-493, further chain) above
T4 sequence (Q27218 32-507, further chain): as the sequence (Q27218 32-507, further chain) above
T4 sequence (Q93329 26-531, further chain): as the sequence (Q93329 26-531, further chain) above

SMILES: c1ccc([C@H]2CN3CCSC3=N2)cc1 [levamisole]
- EC50 [1]: 13.5 ± 1.5 µM
- EC50 [2]: 11.7 ± 1.3 µM
- EC50 [3]: 5.8 ± 1.2 µM
- EC50 [4]: 6.4 ± 1.2 µM
- EC50 [5]: 10.1 ± 1.1 µM
- EC50 [6]: 2.7 ± 1.4 µM
- EC50 [7]: 12.1 ± 1.2 µM
- Lev Imax [8]: 49.1±10.2%
- Lev Imax [9]: 51.6 ±7.0%
- Lev Imax [10]: 55.9 ±9.4%
- Lev Imax [11]: 33.9 ±13.9%
- Lev Imax [12]: 51.1 ±4.5%
- Lev Imax [13]: 109.5 ±20.7%
- Lev Imax [14]: 112.4 ±19.0%
